Measured values as given in PMC7904743, “WIDOCK: a reactive docking protocol for virtual screening of covalent inhibitors” (Journal of Computer-Aided Molecular Design, 2021).
“Also recorded” adds a separate entry of the source.

Experiments:
KRAS^G12C = tested on: KRAS^G12C; set-up: method as in PMID 28621541; conditions: > 50% labeling at 100 μM considered active; cited from earlier work
[1] = target: T1, Recombinant human microsomal MAO-A (Homo sapiens, UniProt P21397); test: MAO-A activity assay (fluorimetric, Amplex Red, p-tyramine); format: biochemical; conditions: MAO-A residual activity; active if lower than 60%
T1 construct: purchased Sigma Aldrich; host or cells: baculovirus infected insect cells (BTI-TN-5B1-4)
T1 sequence (P21397 1-527): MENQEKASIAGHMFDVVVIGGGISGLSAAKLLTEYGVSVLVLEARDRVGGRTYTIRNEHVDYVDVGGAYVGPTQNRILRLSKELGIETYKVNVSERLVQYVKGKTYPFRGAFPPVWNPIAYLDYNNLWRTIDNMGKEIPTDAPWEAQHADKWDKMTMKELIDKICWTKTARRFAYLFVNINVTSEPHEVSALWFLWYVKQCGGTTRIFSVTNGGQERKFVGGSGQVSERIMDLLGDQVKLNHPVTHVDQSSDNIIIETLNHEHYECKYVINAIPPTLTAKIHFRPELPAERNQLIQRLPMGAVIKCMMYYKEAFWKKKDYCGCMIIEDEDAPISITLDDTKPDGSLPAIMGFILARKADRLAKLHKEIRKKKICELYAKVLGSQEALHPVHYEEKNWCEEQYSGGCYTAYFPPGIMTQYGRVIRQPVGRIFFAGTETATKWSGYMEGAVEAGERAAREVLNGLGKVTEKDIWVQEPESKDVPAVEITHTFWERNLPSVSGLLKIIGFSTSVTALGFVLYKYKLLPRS
Procedure: The effects of the test compounds on MAO-A were investigated using a fluorimetric assay, following a previously described methodology. The inhibitory activity of the compounds was evaluated by their effects on the production of hydrogen peroxide (H2O2) from p-tyramine. The production of H2O2 was detected using Amplex Red reagent in the presence of horseradish peroxidase, where a highly sensitive fluorescent product, resorufin, is produced at stoichiometric amounts. Recombinant human microsomal MAO-A enzyme expressed in baculovirus infected insect cells (BTI-TN-5B1-4), horse-radish peroxidase (type II, lyophilized powder), and p-tyramine hydrochloride were obtained from Sigma Aldrich. 10-Acetyl-3,7-dihydroxyphenoxazine (Amplex Red reagent) was synthesized as described in the literature.
Briefly, 100 µL 50 mM sodium phosphate buffer (pH 7.4, 0.05% Triton X-114) containing the compounds and MAO-A were incubated for 30 min at 37 °C in a flat-bottomed black 96-well microplate, and placed in a dark microplate reader chamber. After the pre-incubation, the reaction was started by adding the final concentrations of 200 µM Amplex Red reagent, 2 U/mL horseradish peroxidase, and 1 mM p-tyramine (final volume, 200 µL). The production of resorufin was quantified based on the fluorescence generated (λex = 530 nm, λem = 590 nm) at 37 °C over a period of 30 min, during which time the fluorescence increased linearly. For control experiments, DMSO was used instead of the appropriate dilutions of the compounds in DMSO. To determine the blank value (b), phosphate-buffered solution replaced the enzyme solution. The initial velocities were calculated from the trends obtained, with each measurement carried out in duplicate. The specific fluorescence emission to obtain the final result was calculated after subtraction of the blank activity (b).

[2] = Kinetic measurement of adduct formation with L-glutathione (GSH) by HPLC–MS; format: physicochemical; set-up: unit not given here
Procedure: Electrophilic fragments tested against MurA, CatB and MAO-A (25–53, structures shown in Supporting Figure S2 and SMILES provided in Supporting Table S1) represent eight different warhead chemotypes reacting via two reaction mechanisms: Michael-type nucleophilic addition and nucleophilic substitution. The intrinsic thiol reactivities (see Table 1) were determined by kinetic measurement of adduct formation with L-glutathione (GSH), a widely used cysteine surrogate, by an HPLC–MS methodology, as described in the referred study.

CatB [3] = target: T2, CatB (Homo sapiens, UniProt P07858); set-up: method as in PMID 30321804; conditions: residual activity at 100 μM, single point; cited from earlier work
MurA [4] = target: T3, MurA (Escherichia coli, UniProt P0A749); conditions: cited from earlier work
T3 sequence (P0A749 whole entry): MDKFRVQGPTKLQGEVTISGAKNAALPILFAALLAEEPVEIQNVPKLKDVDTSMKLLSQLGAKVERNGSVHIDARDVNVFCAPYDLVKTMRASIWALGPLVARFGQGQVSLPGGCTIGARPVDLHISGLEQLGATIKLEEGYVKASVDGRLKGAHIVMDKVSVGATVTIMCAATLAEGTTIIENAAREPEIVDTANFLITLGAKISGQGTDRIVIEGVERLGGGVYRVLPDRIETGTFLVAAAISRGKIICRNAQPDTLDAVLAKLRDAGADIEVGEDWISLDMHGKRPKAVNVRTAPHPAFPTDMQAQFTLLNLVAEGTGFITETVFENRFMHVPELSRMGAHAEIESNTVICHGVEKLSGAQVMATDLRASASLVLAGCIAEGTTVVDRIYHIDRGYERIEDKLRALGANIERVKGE

MurA [5] = target: T3, MurA; conditions: MurA residual activity; active if lower than 60%
Procedure: (§1) These fragments were measured in single point enzyme activity assays at 100 μM concentration against MurA and CatB.

CatB [6] = target: T2, CatB; test: CatB single point enzyme activity assay (residual activity); conditions: CatB residual activity; active if lower than 60%
Procedure: as §1

[7] = half-life of adduct formation with L-glutathione; cited from earlier work
human MAO-A = target: T4, human MAO-A (Homo sapiens, UniProt P21397); test: Labelling of human MAO-A, tryptic digestion and LC–MS/MS; format: binding; conditions: 24 h at 4 °C, tryptic digestion
T4 sequence (P21397 1-527): T1 sequence (P21397 1-527)

Structure (SMILES): Cc1ccc2[nH]ncc2c1-c1c(Cl)cc2c(N3CCN(C(=O)n4ccnc4)CC3)ncnc2c1F [Compound 14, c1n[nH]c(c12)ccc(C)c2-c(c(Cl)c3)c(F)c(c34)ncnc4N5CCN(CC5)C(=O)n6ccnc6]
- experimental activity class against KRAS^G12C (KRAS^G12C): experimental actives

Structure (SMILES): Cc1ccc2[nH]ncc2c1-c1c(Cl)cc2c(N3CCC(NC(=O)CCl)CC3)ncnc2c1F [Compound 17, c1n[nH]c(c12)ccc(C)c2-c(c(Cl)c3)c(F)c(c34)ncnc4N5CCC(CC5)NC(=O)CCl]
- experimental activity class against KRAS^G12C (KRAS^G12C): experimental actives

Structure (SMILES): C/C=C/C#N [Compound 28, C/C=C/C#N]
- RA [1]: 81%
- Reactivity, Experimental ln(k) vs GSH [2]: -4.085
- CatB RA (%) (CatB [3]): 87%
- MurA RA (%) (MurA [4]; residual activity at 100 μM, single point): 101%
- RA (MurA [5]): 101%
- RA (CatB [6]): 87%
- GSH half-life [7]: 41.2 h

Structure (SMILES): C=CC(=O)Nc1cc(C(F)(F)F)cc(C(F)(F)F)c1 [Compound 32, C=CC(=O)Nc1cc(C(F)(F)F)cc(C(F)(F)F)c1]
- covalent labelling of MAO-A (MS/MS) (human MAO-A): double modified; also recorded: forms a covalent bond with Cys323
- experimental activity class against MurA (MurA [4]; < 60% residual activity at 100 μM considered active): experimental MurA actives
